Measurements: patent publication US20130158122A1, “EP2 Agonist from Non-Prostanoid Structures Designed as PGE2 Antagonists” (ALLERGAN, INC., priority 2010, published 2013)

Test system: Beagle dogs
Assay: Intraocular pressure studies in dogs (applanation pneumatonometry)
Format: in vivo
Details: conscious Beagle dogs, topical to one eye, approx. 35 μl, IOP before and at 2, 4, 6 hours on each day of 5 day study; vehicle in other eye
Description: Measurement of intraocular pressure studies in dogs will involve applanation pneumatonometry performed in Beagle dogs of both sexes. The animals will remain conscious throughout the study and will be gently restrained by hand. Compound 4-{[5-chloro-2-(4-chloro-benzyloxy)-benzoylamino]-methyl}-benzoic acid will be administered topically to one eye using a dropper bottle to deliver approximately a 35 μl volume, the other eye received vehicle (1% polysorbate 80 in 5 mM Tris HCl) as a control. Proparacaine at 0.25% was used for corneal anesthesia during tonometry. Intraocular pressure will be determined just before drug administration and at 2, 4, 6 hours thereafter on each day of the 5 day study. Measurement of ocular surface hyperemia will be performed immediately before each of the intraocular pressure readings. Ocular surface hyperemia grading will be semi-quantitative and assessed according to a 5 point scoring scale used for clinical evaluations: 0=none; 0.5=trace; 1=mild; 2=moderate; and 3=severe.

Q: How did the intraocular pressure turn out when `O=C(O)c1ccc(CNC(=O)c2cc(Cl)ccc2OCc2ccc(Cl)cc2)cc1` [4-{[5-chloro-2-(4-chloro-benzyloxy)-benzoylamino]-methyl}-benzoic acid] was run?
A: significantly reduce intraocular pressure
